{
  "source": "patent US6642258B1",
  "about": "“Use of central cannabinoid receptor antagonist for preparing medicines” (Sanofi-Synthelabo, priority 1999, dated 2003)",
  "key": {"[1]": {"tested_on": "experimental allergic encephalitis (EAE) in Lewis rats", "assay": "Experimental allergic encephalitis (EAE) induced in Lewis rats by intraplantar MBP (fragment 68-84) in FCA", "format": "in vivo", "details": "administered orally or intraperitoneally from day zero of induction"}, "[2]": {"tested_on": "experimental allergic encephalitis (EAE) in SjL/j mice", "assay": "Experimental allergic encephalitis (EAE) induced in SjL/j mice by subcutaneous PLP (fragment 139-151) in FCA plus Bordetella pertussis", "format": "in vivo", "details": "administered orally or intraperitoneally from day zero of induction"}},
  "data": [
    {"compound": "Cc1c(C(=O)NN2CCCCC2)nn(-c2ccc(Cl)cc2Cl)c1-c1ccc(Cl)cc1", "note": "[compound A, N-Piperidino-5-(4-chlorophenyl)-1-(2,4-dichlorophenyl)-4-methylpyrazole-3-carboxamide]", "values": [
      {"measurement": "severity of the condition (paralysis of the hind quarters)", "setting": "[1]", "value": "statistically smaller"},
      {"measurement": "weight loss of the animals", "setting": "[1]; compared with vehicle alone", "value": "significantly smaller"},
      {"measurement": "severity of the condition (paralysis of the hind quarters)", "setting": "[2]", "value": "statistically smaller"},
      {"measurement": "weight loss of the animals", "setting": "[2]; compared with vehicle alone", "value": "significantly smaller"}
    ]}
  ]
}
